In US12564631B2, “Phytosphingosine derivatives as adjuvants in immune stimulation” (Helmholtz-Zentrum für Infektionsforschung GmbH, priority 2020, dated 2026):
Entries after “also recorded” stand apart in the source; their conditions may differ.

Assays:
[1] = system: Ova-specific IgG; test: Ova-specific IgG titer (ELISA) in sera of mice immunized with Ovalbumin plus adjuvant; assay type: in vivo; conditions: Ovalbumin 30 μg + adjuvant 15 μg, days 0, 14, 28, sera 14 days after last immunization
Procedure: FIG. 5: Immunization protocol—Administration (intramuscular route) of Ovalbumin with adjuvants. Ovalbumin (30 μg) was co-administered (intramuscular) without or with different adjuvants, such as IPB 2033-2044, c-di-AMP or aßGalCerMPEG (15 μg), on days 0, 14 and 28.
(§1) FIG. 7: Systemic humoral immune responses induced in mice. Shown is the IgG titer as a readout of systemic humoral immune responses induced in mice after three immunizations with Ovalbumin co-administered with different adjuvants via intramuscular route. Ova-specific IgG titers were measured via ELISA in sera 14 days after the last immunization.
FIG. 9: Immunization protocol—Administration (intranasal route) of Ovalbumin with adjuvants. Immunization protocol: Mucosal administration (intranasal (i.n.) route) of Ovalbumin (30 μg) co-administered without or with different adjuvants, such as IPB 2033-2044, c-di-AMP or aßGalCerMPEG (15 μg), on days 0, 14 and 28.
as §1, with “11:” for “7:”, “intranasal” for “intramuscular”, “titers” for “titers were measured via ELISA”
Groups of mice (3-5 animals) were immunized either intranasal (i.n.) or intramuscular (i.m.) on days 0, 14 and 281 with PBS, or with Ovalbumin (30 μg); the latter were administered alone or with different adjuvants—c-di-AMP, aßGalCerMPEG or IPB 2033 to 2044—made up to a maximal volume of 20 μl (i.n.) or 50 μl (i.m.) in PBS.
Blood samples were collected on days 1, 14, 28 and 42 via retro-bulbar bleeding. Spleens of vaccinated mice were aseptically removed. For the subsequent methods, cell suspensions of spleens (n=5) of each immunized groups were prepared and erythrocytes were lysed. These splenocyte pools of each group were cultured in the presence of different concentrations of Ovalbumin; controls received 5 μg/mL concanavalin A. The incorporation of [^3H] thymidine into the DNA of proliferating cells was determined using a scintillation counter (Wallac 1450, Micro-Trilux).
The Ova-specific antibodies were determined in serum samples by ELISA. Endpoint titers were expressed as reciprocal values of the last dilution, which gave an optical density at 405 nm of two times above the values of the negative controls. For calculation purposes, negative samples were assigned an arbitrary titer of the lowest dilution measured.
As described in the protocols above, groups of mice (3-5 animals) were immunized either intranasal (i.n.) or intramuscular (i.m.) on days 0, 14 and 281 with PBS, or with Ovalbumin (30 μg); the latter were administered alone or with different adjuvants—c-di-AMP, aßGalCerMPEG or IPB 2033 to 2044—is shown in FIG. 5-11, intramuscular.

[2] = system: CD4+ T cells; test: CFSE proliferation assay of CD4+ T cells after interaction with Ova/adjuvant-matured bone marrow derived DCs (APC); assay type: cell-based, mice; conditions: for stimulating effect of CD4+ T cells versus controls with only antigen Ova: CFSE loss up to 7 days, DCs activated with Ova + 10 μg compound, FIG. 4A/4B
Description: FIG. 3B: Cell proliferation tracked by CFSE dilution of CD4+ T cells after interaction with matured Antigen Presenting Cells (APC). With every cell division, the CFSE signal strength is approximately halved. The shown cell numbers indicate the ratio of proliferated live CD4+ T cells.
(§2) FIG. 4: Effect after treatment with IPB 0964-1917—Cell proliferation tracked by CFSE loss of T cells after interaction with matured Antigen Presenting Cells (APC). With every cell division, the CFSE signal strength is reduced. The shown cell numbers indicate the ratio of proliferating T and B cells (7 steps are shown). (A) Numbers of CD4+ T cells are shown at different proliferation steps up to 7 days measuring the loss of CFSE. Naïve cells were treated with one of IPB1901-1912 together with DCs activated with Ova prior to the CFSE assay. (B) Numbers of CD4+ T cells are shown at different proliferation steps up to 7 days measuring the loss of CFSE. Naïve cells were treated with one of IPB2033-2044 together with DCs activated with Ova prior to the CFSE assay. (C) Numbers of CD8+ T cells are shown at different proliferation steps up to 7 days measuring the loss of CFSE. Naïve cells were treated with one of IPB1901-1912 together with DCs activated with Ova prior to the CFSE assay. (D) Numbers of CD8+ T cells are shown at different proliferation steps up to 7 days measuring the loss of CFSE. Naïve cells were treated with one of IPB2033-2044 together with DCs activated with Ova prior to the CFSE assay.
(§3) In order to assess the properties of the inventive compounds in antigen-specific T and B cell stimulation, the compounds were administered to cultured bone marrow cells in a CFSE assay.
(§4) Briefly, femurs and Tibiae of female 4-12 weeks old C57Bl6 (or BALB/c for TCR HA) were removed and purified from the surrounding muscle tissue (Kleenex tissues). Intact Bones were left in 70% ethanol for 2-5 min for disinfection. Both ends were cut with scissors and the bone marrow were flushed with PBS using a syringe with a 0.45 mm diameter needle, clusters were disintegrated by vigorous pipetting.
(§5) In order to obtain activated antigen presenting dendritic cells (DCs), bone marrow cells were cultured with GM-CSF. On Day 0, cells were seeded in a concentration of 2×10^6 cells per 100 mm dish (bacteriological petri dishes) in 10 ml RPMI-10 (100 U Pen/100 μg Strept/2 mM Glutamin/50 μm ß-Mercaptoethanol/10% FCS heat-inactivated and filtered 0.22 μm Filter) containing 200 Units GM-CSF. On Day 3 another 10 ml RPMI-10 containing 200 U GM-CSF were added to the plates. On Day 6 half of the culture supernatants (10 ml) were collected, centrifuged and the cell pellet resuspended in 10 ml fresh RPMI-10/200 U GM-CSF and given back into the original plates.
(§6) Subsequently, the DCs were incubated with Ovalbumin (as antigen) alone or co-administered with known adjuvants, such as α-GalCerMPEG, aßGalCerMPEG or TLR2/6 ligand (BPPcysMPEG), or the novel phytosphingosine derivatives of the present invention. The activation of DCs was controlled by FACS analysis of different CD markers, such as CD40, CD54, CD80, CD86, CD83, MHCI and MHCII.
(§7) The effect of the compounds of the present invention was then ascertained via co-incubation of naïve T or B cells, obtained from mice (OTI or OTII mice) with previous exposure to the Ova antigen, with DCs that had been treated with the compounds of the invention.
(§8) Naïve T cells were derived from LN/spleen from OTI or OTII mice. The MagniSort™ Mouse CD4 naïve or CD8 naïve T cell Enrichment Kit is designed for the magnetic separation of CD4 or CD8 naïve T cells by negative selection from mouse spleens or lymph nodes utilizing a biotinylated antibody cocktail and streptavidin-coated magnetic beads. Undesired cells are bound by antibody (Anti-Mouse CD8 or CD4/CD11b CD19/CD24/CD44/CD45R(B220)/CD49b(Integrin α 2)/Ly-6G (Gr-1)/γδ TCR/TER-119) and then magnetic beads that, when placed in a magnetic field, leave CD4 or CD8 naïve T cells untouched and free in solution. […]

[3] = system: CD8+ T cells; test: CFSE proliferation assay of CD8+ T cells after interaction with Ova/adjuvant-matured bone marrow derived DCs (APC); assay type: cell-based, mice
Description: FIG. 3C: Cell proliferation tracked by CFSE dilution of CD8+ T cells after interaction with matured Antigen Presenting Cells (APC). With every cell division, the CFSE signal strength is approximately halved. The shown cell numbers indicate the ratio of proliferated live CD8+ T cells
as §2, §3, §4, §5, §6, §7, §8

Row | Compound | stimulation of antigen specific IgG production compared to control aßGalCerMPEG+ova ([1]; intramuscular (i.m.), FIG. 7) | stimulation of antigen specific IgG production compared to control aßGalCerMPEG+ova ([1]; intranasal (i.n.), FIG. 11) | capacity to induce antigen specific CD4+ T cell proliferation ([2]; DCs restimulated with Ovalbumin + 10 μg compound for 24 h, interaction with APC for 5 days, FIG. 3B) | effect to induce antigen specific CD8+ T cell proliferation ([3]; DCs restimulated with Ovalbumin + 10 μg compound for 24 h, interaction with APC for 5 days, FIG. 3C) | stimulating effect of CD4+ T cells versus controls with only antigen Ova [2] | stimulating effect of CD8+ T cells versus controls with only antigen Ova ([3]; CFSE loss up to 7 days, DCs activated with Ova + 10 μg compound, FIG. 4C/4D)
1 | CCCCCCCCCCCCCCCCCCCCCCCCCC(=O)N(CC(=O)NCCCCCCN)[C@@H](CO[C@H]1OC(CO)[C@H](O)C(O)C1O)[C@H](O)[C@H](O)CCCCCCCCCCCCCC (stereo partly drawn) [IPB 2035] | improved stimulation | at least equivalent | – | – | – | –
2 | CCCCCCCCCCCCCCCCCCCCCCCCCC(=O)N(CC(=O)NCCN1C(=O)c2cccc3c(N(C)C)ccc(c23)C1=O)[C@@H](CO[C@H]1OC(CO)[C@H](O)C(O)C1O)[C@H](O)[C@H](O)CCCCCCCCCCCCCC (stereo partly drawn) [IPB 2041] | at least equivalent | improved stimulation | – | – | – | –
3 | CCCCCCCCCCCCCCCCCCCCCCCCCC(=O)N(CC(=O)NCCCc1ccccc1)[C@@H](CO[C@H]1OC(CO)[C@H](O)C(O)C1O)[C@H](O)[C@H](O)CCCCCCCCCCCCCC (stereo partly drawn) [IPB 2037] | improved stimulation | at least equivalent | – | – | – | –
4 | CCCCCCCCCCCCCCCCCCCCCCCC(=O)N(CC(=O)NCCC(=O)O)[C@@H](CO[C@H]1OC(CO)[C@H](O)C(O)C1O)[C@H](O)[C@H](O)CCCCCCCCCCCCCC (stereo partly drawn) [IPB 0964] | – | – | high capacity | strong effect; also recorded: beneficial effect | – | –
5 | CCCCCCCCCCCCCCCCCCCCCCCCCC(=O)N(CC(=O)NCCC(=O)OC(C)(C)C)[C@@H](CO[C@H]1OC(CO)[C@H](O)C(O)C1O)[C@H](O)[C@H](O)CCCCCCCCCCCCCC (stereo partly drawn) [IPB 2043] | improved stimulation | improved stimulation | – | – | – | –
6 | CCCCCCCCCCCCCCCCCCCCCCCCCC(=O)N(CC(=O)NCCOCCOCCOCCOC)[C@@H](CO[C@H]1OC(CO)[C@H](O)[C@H](O)C1O)[C@H](O)[C@H](O)CCCCCCCCCCCCCC (stereo partly drawn) [IPB 2034] | improved stimulation | at least equivalent | – | – | – | –
7 | CCCCCCCCCCCCCCCCCCCCCCCCCC(=O)N(CC(=O)NCC(OC)OC)[C@@H](CO[C@H]1OC(CO)[C@H](O)C(O)C1O)[C@H](O)[C@H](O)CCCCCCCCCCCCCC (stereo partly drawn) [IPB 2038] | at least equivalent | improved stimulation | – | – | stimulating effect of CD4+ T cells beyond controls | –
8 | CCCCCCCCCCCCCCCCCCCCCCCCCC(=O)N(CC(=O)NCCCCCCCCCCCCCCCCCC)[C@@H](CO[C@H]1OC(CO)[C@H](O)C(O)C1O)[C@H](O)[C@H](O)CCCCCCCCCCCCCC (stereo partly drawn) [IPB 2033] | improved stimulation | improved stimulation | – | – | – | –
9 | CCCCCCCCCCCCCCCCCCCCCCCCCC(=O)N(CC(=O)NCCOCCOCCOCCOCCOC)[C@@H](CO[C@H]1OC(CO)[C@H](O)[C@H](O)C1O)[C@H](O)[C@H](O)CCCCCCCCCCCCCC (stereo partly drawn) [IPB 2044] | at least equivalent | at least equivalent | – | – | – | –
10 | CCCCCCCCCCCCCCCCCCCCCCCCCC(=O)N(CC(=O)NC1CCCCC1)[C@@H](CO[C@H]1OC(CO)[C@H](O)C(O)C1O)[C@H](O)[C@H](O)CCCCCCCCCCCCCC (stereo partly drawn) [IPB 2039] | improved stimulation | improved stimulation | – | – | stimulating effect of CD4+ T cells beyond controls | stimulating effect of CD8+ T cells beyond controls
11 | CCCCCCCCCCCCCCCCCCCCCCCCCC(=O)N(CC(=O)NCc1ccccc1)[C@@H](CO[C@H]1OC(CO)[C@H](O)C(O)C1O)[C@H](O)[C@H](O)CCCCCCCCCCCCCC (stereo partly drawn) [IPB 2042] | improved stimulation | improved stimulation | – | – | – | –
12 | CCCCCCCCCCCCCCCCCCCCCCCC(=O)N(CC(=O)NCCCCCCCCCCCCCCCCCC)[C@@H](CO[C@H]1OC(CO)[C@H](O)C(O)C1O)[C@H](O)[C@H](O)CCCCCCCCCCCCCC (stereo partly drawn) [IPB 2040] | improved stimulation | improved stimulation | – | – | – | –
